In patent publication US7964558B2, “Therapeutic applications for C-peptide” (La Jolla, priority 2003, dated 2011):

Columns and labels:
[1] = dose injected into a rat; expected; cited from earlier work
[2] = in humans; cited from earlier work
diabetic BB/Wor rats [3] = test: Nerve conduction velocity in motor and sensory (sciatic-tibial) nerves of diabetic BB/Wor rats; type: in vivo, rat
Description: Further technical details can be found in Sima et al., Diabetologia (2001) 44: 889-897.
(§1) Prediabetic male BB/Wor rats were used. Ten rats were used in each group, where the animals were closely age-matched. They were maintained in metabolic cages with free access to water and rat chow. Bodyweight, urine volume and glucosuria were monitored daily to ascertain onset of diabetes. Immediately after the onset of diabetes, administration of C-peptides was commenced in either a single dose/24 hours, three doses/24 hours or as a continuous infusion by osmopump.
(§2) The single dose given was 75 nmol/kg and the three doses given were each 25 nmol/kg. The continuous infusion gave a dose of 75 nmol/kg over a 24 hour period.
Synthetic rat C-peptide II with a purity of more than 98% by HPLC was used (Genosys, Cambridge, UK) dissolved in saline (12 mg/ml). Control rats were given a dose of saline instead of C-peptide.
The nerve conduction velocity in motor and sensory nerves and Na^+K^+ATPase levels in the rats were measured. Baseline nerve conduction velocity was measured within 24 hours of onset of diabetes. […]
(§3) Statistical analysis. The results are presented as means±SE and the significance of differences was calculated by analysis of variance (ANOVA). Group differences were assessed by post hoc analysis using the Student-Newman-Keul test. […]

Na+K+ATPase = Na+K+ATPase activity in the sciatic nerve of diabetic BB/Wor rats; type: in vivo, rat; conditions: once daily dose 75 nmol/kg, 8 weeks, sciatic nerve (FIG. 4)
Description: as §1, §2
(§4) Synthetic rat C-peptide II with a purity of more than 98% by HPLC was used (Genosys, Cambridge, UK) dissolved in saline (12 mg/ml). Control rats were given a dose of saline instead of C-peptide. […]
For Na^+/K^+-ATPase activity, nerve samples were homogenized in 2 ml of 0.2 mol/l sucrose and 0.02 mol/l TRIS-HCl at pH 7.5. […] Na^+/K^+-ATPase activity was defined as the difference before and after ouabain and was expressed as μmol ADP formed per gram of wet weight per hour.
as §3

diabetic BB/Wor rats [4] = test: Morphometric and teased fibre assessment of sural nerve in diabetic BB/Wor rats; type: in vivo, rat; conditions: once daily dose 75 nmol/kg, 8 weeks, compared to diabetic rats (FIG. 5)
Description: as §1, §2, §4
Teased fibre examinations. A mean of 168±4 myelinated fibres were teased from each sural nerve and scored for specific changes. […] Changes were expressed as percentages of total fibres.
as §3

Substance: C-peptide: Synthetic rat C-peptide II, purity more than 98% by HPLC (Genosys), dissolved in saline; used in Example 1 (EVEDPQVGQVELGAGPGAGSEQTLALEVARQ; Ins Rodent C-peptide)
- time to disappear entirely from circulation [1]: 2 to 3 h
- half-life [2]: approximately 30 minutes
- effectiveness of once daily dose compared with other dosing regimens (diabetic BB/Wor rats [3]; nerve conduction velocity and Na+K+ATPase activity, 75 nmol/kg once daily vs 3 x 25 nmol/kg daily or 75 nmol/kg/24 h continuous infusion by osmopump): as effective as three daily dose or a continuous infusion
- nerve conduction velocity (diabetic BB/Wor rats [3]; once daily dose 75 nmol/kg, 8 weeks, diabetic BB/Wor rats, motor and sensory nerves (FIGS. 2, 3)): clearly and sufficiently improved
- Na+K+ATPase activity (Na+K+ATPase): clearly and sufficiently improved
- morphology of cells (morphometric data) (diabetic BB/Wor rats [4]): improved morphology
